Results reported in ChEMBL document CHEMBL4507285, “Data for DCP probe MRL-SYKi” (2021).

How the values were obtained:
[1] = target: Calcium/calmodulin-dependent protein kinase type 1 (Homo sapiens) (UniProt Q14012); settings: Compound concentration 100.0 nM
[2] = target: Fibroblast growth factor receptor 1 (Homo sapiens) (UniProt P11362); settings: Compound concentration 100.0 nM
[3] = target: Serine/threonine-protein kinase 33 (Homo sapiens) (UniProt Q9BYT3); settings: Compound concentration 100.0 nM
Chain of Serine/threonine-protein kinase 33 (Homo sapiens) (Q9BYT3 whole entry, looked up): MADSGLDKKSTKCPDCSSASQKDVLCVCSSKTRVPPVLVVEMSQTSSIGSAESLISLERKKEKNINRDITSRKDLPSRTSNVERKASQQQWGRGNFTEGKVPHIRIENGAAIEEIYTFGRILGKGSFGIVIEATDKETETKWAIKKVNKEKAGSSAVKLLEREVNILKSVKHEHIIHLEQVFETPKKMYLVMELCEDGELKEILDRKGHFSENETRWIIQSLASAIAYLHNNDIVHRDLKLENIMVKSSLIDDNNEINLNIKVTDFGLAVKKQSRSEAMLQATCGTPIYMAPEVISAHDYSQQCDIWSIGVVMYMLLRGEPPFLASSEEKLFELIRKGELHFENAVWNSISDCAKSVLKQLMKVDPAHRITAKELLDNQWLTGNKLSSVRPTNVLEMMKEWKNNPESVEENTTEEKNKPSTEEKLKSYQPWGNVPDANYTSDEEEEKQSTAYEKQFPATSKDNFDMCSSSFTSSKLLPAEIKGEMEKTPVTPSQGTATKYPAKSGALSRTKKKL

[4] = target: 5-hydroxytryptamine receptor 2B (Homo sapiens, UniProt P41595); settings: Compound concentration 10.0 uM
Chain of 5-hydroxytryptamine receptor 2B (P41595 whole entry): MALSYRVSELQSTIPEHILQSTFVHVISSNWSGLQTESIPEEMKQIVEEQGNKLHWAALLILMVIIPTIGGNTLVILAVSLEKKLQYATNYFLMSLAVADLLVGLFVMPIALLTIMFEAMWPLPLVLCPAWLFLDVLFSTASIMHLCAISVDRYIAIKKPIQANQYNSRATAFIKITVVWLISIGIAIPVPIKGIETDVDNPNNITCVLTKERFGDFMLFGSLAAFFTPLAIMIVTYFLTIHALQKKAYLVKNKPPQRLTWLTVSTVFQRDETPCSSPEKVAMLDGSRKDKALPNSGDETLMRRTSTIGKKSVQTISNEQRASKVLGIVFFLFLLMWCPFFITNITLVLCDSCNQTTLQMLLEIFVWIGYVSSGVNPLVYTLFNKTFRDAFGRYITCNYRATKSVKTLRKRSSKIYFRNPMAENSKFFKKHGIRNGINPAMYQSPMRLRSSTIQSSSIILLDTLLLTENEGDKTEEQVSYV

[5] = target: Protein-tyrosine kinase 6 (Homo sapiens) (UniProt Q13882); settings: Compound concentration 100.0 nM
[6] = target: Calcium/calmodulin-dependent protein kinase type II subunit gamma (Homo sapiens) (UniProt Q13555); settings: Compound concentration 100.0 nM
[7] = target: Dual specificity mitogen-activated protein kinase kinase 3 (Homo sapiens) (UniProt P46734); settings: Compound concentration 100.0 nM
[8] = target: Cyclin-dependent kinase 15 (Homo sapiens) (UniProt Q96Q40); settings: Compound concentration 100.0 nM
[9] = target: Tyrosine-protein kinase JAK3 (Homo sapiens) (UniProt P52333); settings: Compound concentration 100.0 nM
[10] = target: Tyrosine-protein kinase TXK (Homo sapiens) (UniProt P42681); settings: Compound concentration 100.0 nM
Chain of Tyrosine-protein kinase TXK (Homo sapiens) (P42681 whole entry): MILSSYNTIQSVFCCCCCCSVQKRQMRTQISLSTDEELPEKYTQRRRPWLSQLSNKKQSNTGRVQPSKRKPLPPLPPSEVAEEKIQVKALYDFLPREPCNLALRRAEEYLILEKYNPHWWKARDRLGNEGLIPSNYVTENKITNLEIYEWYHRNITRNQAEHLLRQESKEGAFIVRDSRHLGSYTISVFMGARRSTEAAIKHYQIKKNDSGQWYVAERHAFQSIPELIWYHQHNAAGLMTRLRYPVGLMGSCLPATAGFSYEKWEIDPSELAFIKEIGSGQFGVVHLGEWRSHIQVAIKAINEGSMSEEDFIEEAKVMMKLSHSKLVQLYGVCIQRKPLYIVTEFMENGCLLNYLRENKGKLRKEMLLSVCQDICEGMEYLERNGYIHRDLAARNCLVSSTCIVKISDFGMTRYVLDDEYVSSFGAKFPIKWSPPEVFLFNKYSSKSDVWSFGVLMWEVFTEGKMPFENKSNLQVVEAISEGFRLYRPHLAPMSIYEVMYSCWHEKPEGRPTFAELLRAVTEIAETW

[11] = system: Tyrosine-protein kinase ABL1 (Homo sapiens), P00519 [T315I]; settings: Compound concentration 100.0 nM
[12] = target: Ribosomal protein S6 kinase alpha-4 (Homo sapiens) (UniProt O75676); settings: Compound concentration 100.0 nM
[13] = target: Tyrosine-protein kinase HCK (Homo sapiens) (UniProt P08631); settings: Compound concentration 100.0 nM
[14] = target: Serine/threonine-protein kinase 24 (Homo sapiens) (UniProt Q9Y6E0); settings: Compound concentration 100.0 nM
Chain of Serine/threonine-protein kinase 24 (Homo sapiens) (Q9Y6E0 whole entry, looked up): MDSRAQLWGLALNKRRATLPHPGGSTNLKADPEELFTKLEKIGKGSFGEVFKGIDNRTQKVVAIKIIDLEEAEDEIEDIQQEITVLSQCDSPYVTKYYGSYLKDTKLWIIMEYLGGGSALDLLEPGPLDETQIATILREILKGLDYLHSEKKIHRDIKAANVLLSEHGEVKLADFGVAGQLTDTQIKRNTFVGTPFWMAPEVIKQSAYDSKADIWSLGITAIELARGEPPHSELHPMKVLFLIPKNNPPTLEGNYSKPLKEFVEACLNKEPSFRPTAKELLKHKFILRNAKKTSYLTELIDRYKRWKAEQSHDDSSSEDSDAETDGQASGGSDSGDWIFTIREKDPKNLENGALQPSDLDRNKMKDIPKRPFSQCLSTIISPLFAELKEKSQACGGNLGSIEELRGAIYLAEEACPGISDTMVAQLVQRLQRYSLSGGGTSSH

[15] = target: Dual specificity protein kinase CLK2 (Homo sapiens) (UniProt P49760); settings: Compound concentration 100.0 nM
[16] = target: Ribosomal protein S6 kinase alpha-3 (Homo sapiens) (UniProt P51812); settings: Compound concentration 100.0 nM
[17] = target: BMP-2-inducible protein kinase (Homo sapiens) (UniProt Q9NSY1); settings: Compound concentration 100.0 nM
[18] = target: Myosin light chain kinase family member 4 (Homo sapiens) (UniProt Q86YV6); settings: Compound concentration 100.0 nM
[19] = target: Ribosomal protein S6 kinase alpha-1 (Homo sapiens) (UniProt Q15418); settings: Compound concentration 100.0 nM
Chain of Ribosomal protein S6 kinase alpha-1 (Homo sapiens) (Q15418 whole entry): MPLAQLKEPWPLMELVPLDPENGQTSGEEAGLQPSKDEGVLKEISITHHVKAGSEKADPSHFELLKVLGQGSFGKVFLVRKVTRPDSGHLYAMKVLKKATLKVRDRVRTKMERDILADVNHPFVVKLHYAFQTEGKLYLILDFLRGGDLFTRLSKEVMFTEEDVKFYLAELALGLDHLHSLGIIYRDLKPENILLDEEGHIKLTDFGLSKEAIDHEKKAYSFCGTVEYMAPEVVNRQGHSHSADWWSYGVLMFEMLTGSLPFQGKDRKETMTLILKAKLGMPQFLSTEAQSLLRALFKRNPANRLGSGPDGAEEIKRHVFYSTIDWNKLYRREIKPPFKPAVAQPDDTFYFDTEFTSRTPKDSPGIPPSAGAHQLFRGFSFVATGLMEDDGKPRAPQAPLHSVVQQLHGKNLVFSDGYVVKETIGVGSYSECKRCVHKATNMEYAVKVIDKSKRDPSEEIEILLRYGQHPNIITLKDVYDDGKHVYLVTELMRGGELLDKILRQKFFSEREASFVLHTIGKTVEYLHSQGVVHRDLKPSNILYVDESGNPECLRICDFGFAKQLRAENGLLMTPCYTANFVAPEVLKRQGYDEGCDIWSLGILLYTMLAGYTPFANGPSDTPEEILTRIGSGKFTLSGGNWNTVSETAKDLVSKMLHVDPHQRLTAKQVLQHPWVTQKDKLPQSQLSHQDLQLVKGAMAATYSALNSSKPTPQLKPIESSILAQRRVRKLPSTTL

[20] = system: Receptor-type tyrosine-protein kinase FLT3 (Homo sapiens), P36888 [UNDEFINED MUTATION]; settings: Compound concentration 100.0 nM
[21] = target: Proto-oncogene tyrosine-protein kinase receptor Ret (Homo sapiens) (UniProt P07949); settings: Compound concentration 100.0 nM
[22] = target: Serine/threonine-protein kinase pim-3 (Homo sapiens) (UniProt Q86V86); settings: Compound concentration 100.0 nM
[23] = target: Beta-adrenergic receptor kinase 1 (Homo sapiens) (UniProt P25098); settings: Compound concentration 100.0 nM
[24] = target: Serine/threonine-protein kinase PAK 2 (Homo sapiens) (UniProt Q13177); settings: Compound concentration 100.0 nM
[25] = system: Phosphatidylinositol 4,5-bisphosphate 3-kinase catalytic subunit alpha isoform (Homo sapiens), P42336 [C420R]; settings: Compound concentration 100.0 nM
[26] = system: Epidermal growth factor receptor (Homo sapiens), P00533 [G719S]; settings: Compound concentration 100.0 nM
[27] = target: Dual specificity mitogen-activated protein kinase kinase 7 (Homo sapiens) (UniProt O14733); settings: Compound concentration 100.0 nM
[28] = target: Casein kinase II subunit alpha (Homo sapiens) (UniProt P68400); settings: Compound concentration 100.0 nM
[29] = system: Tyrosine-protein kinase ABL1 (Homo sapiens), P00519 [F317L]; settings: Compound concentration 100.0 nM
[30] = target: Cyclin-dependent kinase 17 (Homo sapiens) (UniProt Q00537); settings: Compound concentration 100.0 nM
[31] = target: cAMP-dependent protein kinase catalytic subunit beta (Homo sapiens) (UniProt P22694); settings: Compound concentration 100.0 nM
[32] = target: Mitogen-activated protein kinase 10 (Homo sapiens) (UniProt P53779); settings: Compound concentration 100.0 nM
[33] = target: Phosphatidylinositol 3-kinase C2 domain-containing subunit gamma (Homo sapiens) (UniProt O75747); settings: Compound concentration 100.0 nM
Chain of Phosphatidylinositol 3-kinase C2 domain-containing subunit gamma (Homo sapiens) (O75747 whole entry, the tested form may be a part): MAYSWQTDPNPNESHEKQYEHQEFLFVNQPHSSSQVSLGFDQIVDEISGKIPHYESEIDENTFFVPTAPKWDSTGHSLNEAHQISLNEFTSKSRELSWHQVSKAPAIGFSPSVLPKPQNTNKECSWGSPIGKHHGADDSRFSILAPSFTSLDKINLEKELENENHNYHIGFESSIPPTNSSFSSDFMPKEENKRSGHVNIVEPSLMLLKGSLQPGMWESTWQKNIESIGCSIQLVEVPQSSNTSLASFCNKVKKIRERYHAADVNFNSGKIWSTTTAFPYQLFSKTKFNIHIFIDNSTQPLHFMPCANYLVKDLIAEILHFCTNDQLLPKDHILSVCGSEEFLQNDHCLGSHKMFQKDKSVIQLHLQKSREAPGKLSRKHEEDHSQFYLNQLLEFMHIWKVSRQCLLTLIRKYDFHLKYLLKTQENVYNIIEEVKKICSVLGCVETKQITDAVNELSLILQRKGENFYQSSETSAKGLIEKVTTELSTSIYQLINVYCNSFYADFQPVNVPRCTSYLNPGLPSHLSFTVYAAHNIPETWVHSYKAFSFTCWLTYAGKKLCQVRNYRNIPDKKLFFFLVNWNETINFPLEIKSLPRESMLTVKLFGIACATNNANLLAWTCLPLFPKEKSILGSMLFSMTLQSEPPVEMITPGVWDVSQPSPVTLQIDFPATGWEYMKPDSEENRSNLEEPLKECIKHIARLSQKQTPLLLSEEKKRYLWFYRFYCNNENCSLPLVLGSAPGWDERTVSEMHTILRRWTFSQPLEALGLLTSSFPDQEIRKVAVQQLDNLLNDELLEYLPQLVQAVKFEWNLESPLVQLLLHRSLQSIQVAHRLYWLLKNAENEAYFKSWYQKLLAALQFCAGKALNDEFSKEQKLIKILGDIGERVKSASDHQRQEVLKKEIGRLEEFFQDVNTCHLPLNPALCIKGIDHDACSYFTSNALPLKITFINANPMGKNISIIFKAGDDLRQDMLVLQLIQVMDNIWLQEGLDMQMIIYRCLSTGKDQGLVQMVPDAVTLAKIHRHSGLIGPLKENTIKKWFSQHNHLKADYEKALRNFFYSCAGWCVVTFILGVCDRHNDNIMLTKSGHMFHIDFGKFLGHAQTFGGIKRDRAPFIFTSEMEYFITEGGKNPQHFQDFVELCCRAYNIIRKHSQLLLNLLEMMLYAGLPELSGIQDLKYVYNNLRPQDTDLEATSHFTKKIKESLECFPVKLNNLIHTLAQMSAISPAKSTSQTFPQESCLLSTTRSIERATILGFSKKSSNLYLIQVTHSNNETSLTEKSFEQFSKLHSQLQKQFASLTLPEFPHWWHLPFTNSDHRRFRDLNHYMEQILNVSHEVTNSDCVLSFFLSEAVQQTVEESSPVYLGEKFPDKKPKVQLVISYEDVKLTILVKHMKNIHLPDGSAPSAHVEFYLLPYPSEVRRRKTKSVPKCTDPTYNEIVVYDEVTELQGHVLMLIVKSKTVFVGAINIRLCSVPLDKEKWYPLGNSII

[34] = system: Hepatocyte growth factor receptor (Homo sapiens), P08581 [Y1235D]; settings: Compound concentration 100.0 nM
[35] = target: Serine/threonine-protein kinase tousled-like 1 (Homo sapiens) (UniProt Q9UKI8); settings: Compound concentration 100.0 nM
[36] = target: Serine/threonine-protein kinase TNNI3K (Homo sapiens) (UniProt Q59H18); settings: Compound concentration 100.0 nM
[37] = target: RAF proto-oncogene serine/threonine-protein kinase (Homo sapiens) (UniProt P04049); settings: Compound concentration 100.0 nM
[38] = target: Mitogen-activated protein kinase 12 (Homo sapiens) (UniProt P53778); settings: Compound concentration 100.0 nM
[39] = target: Mitogen-activated protein kinase kinase kinase 20 (Homo sapiens) (UniProt Q9NYL2); settings: Compound concentration 100.0 nM
[40] = target: Phosphorylase b kinase gamma catalytic chain, skeletal muscle/heart isoform (Homo sapiens) (UniProt Q16816); settings: Compound concentration 100.0 nM
[41] = target: MAP/microtubule affinity-regulating kinase 4 (Homo sapiens) (UniProt Q96L34); settings: Compound concentration 100.0 nM
[42] = target: Serine/threonine-protein kinase Nek5 (Homo sapiens) (UniProt Q6P3R8); settings: Compound concentration 100.0 nM
Chain of Serine/threonine-protein kinase Nek5 (Homo sapiens) (Q6P3R8 whole entry): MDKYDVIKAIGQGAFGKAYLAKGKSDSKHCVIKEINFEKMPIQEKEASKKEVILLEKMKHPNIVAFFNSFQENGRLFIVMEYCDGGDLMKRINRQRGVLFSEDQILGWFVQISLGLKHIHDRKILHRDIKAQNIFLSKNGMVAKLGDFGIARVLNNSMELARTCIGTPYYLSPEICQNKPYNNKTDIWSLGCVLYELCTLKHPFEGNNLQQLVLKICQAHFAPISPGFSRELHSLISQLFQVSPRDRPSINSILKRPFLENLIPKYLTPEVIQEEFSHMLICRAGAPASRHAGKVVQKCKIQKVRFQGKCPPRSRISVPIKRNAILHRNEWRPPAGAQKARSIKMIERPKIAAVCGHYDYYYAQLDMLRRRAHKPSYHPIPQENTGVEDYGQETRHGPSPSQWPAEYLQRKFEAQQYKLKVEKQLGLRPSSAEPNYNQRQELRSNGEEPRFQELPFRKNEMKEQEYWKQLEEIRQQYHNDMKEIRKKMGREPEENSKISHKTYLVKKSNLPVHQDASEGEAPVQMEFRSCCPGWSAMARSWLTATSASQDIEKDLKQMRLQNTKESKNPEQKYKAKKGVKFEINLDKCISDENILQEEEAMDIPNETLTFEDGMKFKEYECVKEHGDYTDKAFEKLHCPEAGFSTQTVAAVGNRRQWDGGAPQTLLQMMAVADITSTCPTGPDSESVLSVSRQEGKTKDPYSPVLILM

[43] = target: Cyclin-dependent kinase 16 (Homo sapiens) (UniProt Q00536); settings: Compound concentration 100.0 nM
[44] = target: Fibroblast growth factor receptor 2 (Homo sapiens) (UniProt P21802); settings: Compound concentration 100.0 nM
[45] = target: Ephrin type-A receptor 3 (Homo sapiens) (UniProt P29320); settings: Compound concentration 100.0 nM

**Q.** For Cc1ccc(-c2cnc([C@@]3(O)CC[C@H](C(=O)O)C(C)(C)C3)s2)cc1Nc1cccc(C(F)(F)F)n1 [MRL-SYKi-NC], which residual activity [1] is on record?
**A.** 75.3%

**Q.** And the residual activity [2]?
**A.** 92.4%

**Q.** What about the residual activity [3] of the same compound?
**A.** 100%

**Q.** And the inhibition [4]?
**A.** 77.9%

**Q.** And the residual activity [5]?
**A.** 100%

**Q.** And the residual activity [6]?
**A.** 88.2%

**Q.** And the residual activity [7]?
**A.** 90%

**Q.** What about the residual activity [8] of the same compound?
**A.** 89.7%

**Q.** What about the residual activity [9] of the same compound?
**A.** 42%

**Q.** What about the residual activity [10] of the same compound?
**A.** 88.4%

**Q.** And the residual activity [11]?
**A.** 88%

**Q.** What about the residual activity [12] of the same compound?
**A.** 95.1%

**Q.** And the residual activity [13]?
**A.** 71.9%

**Q.** What about the residual activity [14] of the same compound?
**A.** 100%

**Q.** What about the residual activity [15] of the same compound?
**A.** 100%

**Q.** What about the residual activity [16] of the same compound?
**A.** 93%

**Q.** What about the residual activity [17] of the same compound?
**A.** 100%

**Q.** And the residual activity [18]?
**A.** 100%

**Q.** What about the residual activity [19] of the same compound?
**A.** 91.2%

**Q.** And the residual activity [20]?
**A.** 56.9%

**Q.** And the residual activity [21]?
**A.** 100%

**Q.** What about the residual activity [22] of the same compound?
**A.** 89.2%

**Q.** And the residual activity [23]?
**A.** 100%

**Q.** And the residual activity [24]?
**A.** 89.5%

**Q.** What about the residual activity [25] of the same compound?
**A.** 85.3%

**Q.** And the residual activity [26]?
**A.** 99.3%

**Q.** And the residual activity [27]?
**A.** 77.8%

**Q.** And the residual activity [28]?
**A.** 100%

**Q.** And the residual activity [29]?
**A.** 84.4%

**Q.** What about the residual activity [30] of the same compound?
**A.** 100%

**Q.** And the residual activity [31]?
**A.** 71.5%

**Q.** And the residual activity [32]?
**A.** 37.5%

**Q.** And the residual activity [33]?
**A.** 59.6%

**Q.** And the residual activity [34]?
**A.** 77.3%

**Q.** And the residual activity [35]?
**A.** 100%

**Q.** What about the residual activity [36] of the same compound?
**A.** 100%

**Q.** And the residual activity [37]?
**A.** 100%

**Q.** And the residual activity [38]?
**A.** 98.8%

**Q.** What about the residual activity [39] of the same compound?
**A.** 96.9%

**Q.** And the residual activity [40]?
**A.** 100%

**Q.** And the residual activity [41]?
**A.** 71.5%

**Q.** What about the residual activity [42] of the same compound?
**A.** 100%

**Q.** What about the residual activity [43] of the same compound?
**A.** 93%

**Q.** And the residual activity [44]?
**A.** 100%

**Q.** And the residual activity [45]?
**A.** 93.7%

**Q.** What does the source list for Cc1cc(Nc2nccc(C)n2)cc(-c2cnc([C@@]3(O)CC[C@H](C(=O)O)C(C)(C)C3)s2)c1 [MRL-SYKi]?
**A.** residual activity [1]: 99.3%; residual activity [2]: 82%; residual activity [3]: 64.4%; inhibition [4]: 6.38%; residual activity [5]: 100%; residual activity [6]: 95.2%; residual activity [7]: 29.5%; residual activity [8]: 100%; residual activity [9]: 60.9%; residual activity [10]: 64%; residual activity [11]: 100%; residual activity [12]: 100%; residual activity [13]: 83.3%; residual activity [14]: 83.5%; residual activity [15]: 98%; residual activity [16]: 87.6%; residual activity [17]: 100%; residual activity [18]: 100%; residual activity [19]: 93%; residual activity [20]: 100%; residual activity [21]: 98.8%; residual activity [22]: 100%; residual activity [23]: 97.5%; residual activity [24]: 100%; residual activity [25]: 99.9%; residual activity [26]: 100%; residual activity [27]: 90.3%; residual activity [28]: 100%; residual activity [29]: 69.6%; residual activity [30]: 73.2%; residual activity [31]: 100%; residual activity [32]: 67.7%; residual activity [33]: 95.9%; residual activity [34]: 89.9%; residual activity [35]: 100%; residual activity [36]: 100%; residual activity [37]: 100%; residual activity [38]: 31.2%; residual activity [39]: 92.5%; residual activity [40]: 100%; residual activity [41]: 100%; residual activity [42]: 74.2%; residual activity [43]: 100%; residual activity [44]: 67.3%; residual activity [45]: 100%
